Laboratory results published in paper PMC6266276 (Viruses, 2018).
Several values for one entry are separate records, joined by “and”; a condition that tells them apart may be missing. Equal values may be shown once. Entries after “also recorded” stand apart in the source; their conditions may differ. Read-outs that look alike come from different tables or passages of the source.

What was measured:
[1] = system: phosphorylated eIF4E (p-eIF4E); format: cell-based
[2] = system: vesicular stomatitis virus (VSV); format: cell-based, vesicular stomatitis virus (VSV) strain Indiana
[3] = system: Newcastle disease virus (NDV); assay: microbe, parasite or virus in culture; format: cell-based, Newcastle disease virus (NDV) strain NA-1; details: for IC50: read-out: IC50, half maximal inhibitory concentration
[4] = system: Newcastle disease virus (NDV); design: species or system Newcastle disease virus (NDV) strain NA-1; details: in vivo
[5] = system: Newcastle disease virus (NDV); design: species or system Newcastle disease virus (NDV) strain NA-1; details: in vivo, 0.2 mg/kg
[6] = system: porcine epidemic diarrhea virus (PEDV); assay: microbe, parasite or virus in culture; format: cell-based, porcine epidemic diarrhea virus (PEDV) strain CV777; details: for IC50: Porcine epidemic diarrhea virus, Vero, read-out: IC50, half maximal inhibitory concentration
[7] = system: porcine epidemic diarrhea virus (PEDV); design: species or system porcine epidemic diarrhea virus (PEDV) strain CV777; details: pig, in vivo
[8] = system: avian influenza virus (AIV); design: species or system avian influenza virus (AIV) strain H9-WD; details: in vivo
[9] = system: herpes simplex virus type 1 (HSV-1); assay: microbe, parasite or virus in culture; format: cell-based, herpes simplex virus type 1 (HSV-1) strain F
pseudorabies virus (PRV) = format: cell-based, pseudorabies virus (PRV) strain Fa
[10] = pig, in vivo
[11] = chicken, in vivo
[12] = mouse, in vivo
chikungunya virus = details: HHT at 1 µM ref 38; cited from earlier work
[13] = system: mouse hepatitis coronavirus (MHV); details: HHT at 125 nM ref 53; cited from earlier work
hepatitis B virus (HBV) = details: HHT at concentrations below 2 µM ref 52; cited from earlier work
[14] = system: bovine viral diarrhea virus (BVDV); details: HHT at concentrations below 2 µM ref 52; cited from earlier work
acute myeloid leukemia = details: mice, HHT 1.0 mg/kg ref 26; cited from earlier work
in vitro [15] = details: human
in vitro [16] = details: African green monkey
VSV = details: cited from earlier work

**Q.** Which “cellular total eIF4E level” value [1] does the source give for `Nc1ncnc2n[nH]c(Nc3ccc(F)cc3)c12` [CGP57380] here?
**A.** without an effect on total eIF4E protein level

**Q.** And the p-eIF4E levels [1]?
**A.** prevent the phosphorylation of eIF4E

**Q.** What does the source list for `COC(=O)C[C@](O)(CCCC(C)(C)O)C(=O)O[C@@H]1C(OC)=C[C@]23CCCN2CCc2cc4c(cc2[C@H]13)OCO4` [HHT, homoharringtonine]?
**A.** VSV-G levels, time-of-addition [2]: strong reductions; inhibitory effect against viral infection, pre-treatment [2]: minimal inhibitory effect; reduction of the viral yields, co-/post-treatment [2]: complete reduction; reduction of viral yields [2]: 1.5 orders of magnitude; viral protein G levels of VSV (VSV-G) [2]: strong reduction; viral reduction [2]: 6.5 orders of magnitude and 5 orders of magnitude; viral yields [2]: dramatically reduced; NDV-NP level [3]: strong reduction; SI, Selectivity index = CC50/IC50 [3]: 107; concentration that completely inhibited infection [3]: 100 nM; morphology and number of HeLa cells compared to mock infected sample [3]: no difference in morphology and number; production of recombinant NDV expressing GFP [3]: greatly reduced; IC90 ([3]; avian paramyxovirus 1, HeLa, 24 h): 0.04 µM; IC50 ([3]; avian paramyxovirus 1, HeLa): 0.018 µM; effect on viral infection in chicken embryos [4]: slight effect; also recorded: completely inhibited viral infection; reduction of HAU values [4]: one and three; mRNA level of NDV-NP in blood [5]: significantly decreased; mRNA level of NDV-NP in the liver and lung [5]: significantly decreased; pathological change in tissues and symptoms [5]: did not exhibit a pathological change in tissues or symptoms; also recorded: survived without pathogenic changes in tissues and symptoms; PEDV-N levels, time-of-addition [6]: strong reductions; PEDV-N protein and mRNA levels [6]: strong reduction; SI, Selectivity index = CC50/IC50 [6]: 50; concentration that completely inhibited infection [6]: 500 nM; infection rate, time-of-addition [6]: less than 30%; reduction of viral yields [6]: 1.9 orders of magnitude; viral yields [6]: completely suppressed; IC50 [6]: 0.112 µM; inhibitory activity and death [7]: optimal inhibitory activity without death; pathological change in tissues and symptoms ([7]; 0.05 mg/kg): survived without pathogenic changes in tissues and symptoms; mRNA levels of PEDV-N in blood ([7]; 0.05 mg/kg/day): greatly decreaseed; mRNA levels of PEDV-N in the intestine ([7]; 0.05 mg/kg/day): greatly decreaseed; lung inflammation [8]: decreased local inflammatory reaction but aggravated overall inflammation; also recorded: moderately attenuated inflammation; number of AIV positive cells in lung [8]: No obvious reduction; HSV-ICP8 level [9]: strong reduction; SI, Selectivity index = CC50/IC50 [9]: 40; viral replication [9]: strong reduction in viral replication; IC50 ([9]; Human alphaherpesvirus 1, Vero, read-out: IC50, half maximal inhibitory concentration): 0.139 µM; PRV-gC level (pseudorabies virus (PRV)): strong reduction; viral replication (pseudorabies virus (PRV)): strong reduction in viral replication; accumulation of Mcl-1 [1]: gradually reduced; cellular total eIF4E level [1]: unaffected; p-eIF4E induced by ectopic expression of wild-type eIF4E [1]: decreased the accumulation of p-eIF4E; p-eIF4E levels [1]: gradually reduced; p-eIF4E levels induced by viral infection, in parallel with viral protein [1]: gradually reduced; cell viability (HEK293T cells): no measurable decrease in cell viability; cell viability (HeLa cells): No measurable decrease in cell viability; cell viability (Vero cells): No measurable decrease in cell viability; 50% toxicity dose [10]: 0.2 mg/kg; animals for which side effects were fatal ([10]; 0.2 mg/kg): about 50%; 50% toxicity dose [11]: 0.4 mg/kg; inflammatory reaction in lung [12]: No obvious inflammatory reaction; inhibition of viral yield (chikungunya virus): 2–3 orders of magnitude; inhibition of MHV in vitro [13]: high-magnitude inhibition; antiviral efficacy on HBV DNA levels (hepatitis B virus (HBV)): no protective effects; antiviral efficacy on BVDV infection [14]: no protective effects; acute myeloid leukemia in vivo (acute myeloid leukemia): completely eradicate acute myeloid leukemia; CC50 (in vitro [15]): 1.92 µM; CC50 (in vitro [16]): 5.58 µM

**Q.** With `O=c1c(O)c(-c2ccc(O)c(O)c2)oc2cc(O)cc(O)c12` [Quercetin] as the compound, how does the “SI, Selectivity index = CC50/IC50” value [6] read?
**A.** >145

**Q.** And the IC50 [6]?
**A.** 6.9 µM

**Q.** And the CC50 (in vitro [16])?
**A.** > 1000 µM

**Q.** With `NC(=O)c1ncn([C@@H]2O[C@H](CO)[C@@H](O)[C@H]2O)n1` [Ribavirin] as the compound, how does the “concentrations at which antiviral activity was displayed” value [2] read?
**A.** over 100 µM

**Q.** What about the “SI, Selectivity index = CC50/IC50” value [3] of the same compound?
**A.** 64

**Q.** What about the IC50 ([3]; avian paramyxovirus 1, HeLa) of the same compound?
**A.** 44.2 µM

**Q.** And the “inhibition of VSV titer in cells” value (VSV)?
**A.** 2.5 orders of magnitude

**Q.** And the CC50 (in vitro [15])?
**A.** 2820 µM
